Reference: ChEMBL document CHEMBL5241104, “Reactive metabolites of the anticonvulsant drugs and approaches to minimize the adverse drug reaction” (Eur J Med Chem, 2021)

Key:
Mus musculus [1] = test: Anticonvulsant activity in Swiss mouse assessed as protection against Sc-PTZ induced seizure at ip administration; assay type: functional
Mus musculus [2] = test: Anticonvulsant activity in mouse assessed as protection against maximal electroshock induced seizure at ip administration for 5 mins; assay type: functional
[3] = Toxicity in Swiss albino mouse assessed as lethality at 30 mg/kg,ip; assay type: organism-based; conditions: in vivo, read-out: Activity
[4] = Displacement of 3[H]BTX from rat brain membrane voltage-sensitive sodium channel incubated for 1.5 hrs by scintillation counting analysis; assay type: cell membranes
Mus musculus [5] = test: Anticonvulsant activity in Swiss albino mouse assessed as protection against Sc-PTZ induced seizure at po administration; assay type: functional
[6] = Toxicity in Swiss CD-1 mouse assessed as mortality at 100 mg/kg,ip; assay type: organism-based; conditions: in vivo
[7] = Displacement of 3[H]BTX from rat cerebral cortical synaptosomes voltage-sensitive sodium channel incubated for 1.5 hrs by scintillation counting analysis; assay type: subcellular, Cerebral cortex, Synaptosome
Rattus norvegicus [8] = test: Anticonvulsant activity in Wistar rat assessed as protection against maximal electroshock induced seizure at po administration; assay type: functional
[9] = Protective index, ratio of TD50 for toxicity in Wistar rat assessed as median toxicity dose at po administration by rotorod test to ED50 for anticonvulsant activity in Wistar rat assessed as protection against maximal electroshock induced seizure at po administration; assay type: organism-based; conditions: in vivo, read-out: Ratio TD50/ED50
Rattus norvegicus [10] = species: Rattus norvegicus; test: Inhibition of sodium uptake in rat cerebral cortical synaptosomes at 100 uM incubated for 30 mins by scintillation counting analysis; assay type: functional; conditions: Cerebral cortex, Synaptosome
Rattus norvegicus [11] = species: Rattus norvegicus; test: Inhibition of sodium uptake in rat cerebral cortical synaptosomes at 30 uM incubated for 30 mins by scintillation counting analysis; assay type: functional; conditions: Cerebral cortex, Synaptosome
Rattus norvegicus [12] = test: Anticonvulsant activity in Wistar rat assessed as protection against maximal electroshock induced seizure by measuring median effective dose at po administration; assay type: functional
Rattus norvegicus [13] = species: Rattus norvegicus; test: Inhibition of sodium uptake in rat cerebral cortical synaptosomes at 300 uM incubated for 30 mins by scintillation counting analysis; assay type: functional; conditions: Cerebral cortex, Synaptosome
Mus musculus [14] = test: Anticonvulsant activity in CD-1 mouse assessed as protection against 6-Hz Psychomotor induced seizure at ip administration; assay type: functional
Rattus norvegicus [15] = test: Anticonvulsant activity against maximal electroshock induced seizure in Wistar rat assessed as reduction of time spent in extension phase at 50 mg/kg,po administration; assay type: functional
Rattus norvegicus [16] = test: Anticonvulsant activity in Wistar rat assessed as protection against maximal electroshock induced seizure at po administration for 60 mins; assay type: functional; conditions: 1 h
Mus musculus [17] = test: Anticonvulsant activity in Swiss albino mouse assessed as inhibition of maximal electroshock induced seizure at ip administration; assay type: functional
[18] = Protective index, ratio of TD50 for toxicity in Sc-PTZ induced Swiss albino mouse seizure model assessed as median neurotoxicity dose at po administration by rotorod test to ED50 for anticonvulsant activity in Swiss albino mouse assessed as protection against Sc-PTZ induced seizure at po administration; assay type: organism-based; conditions: in vivo, read-out: Ratio TD50/ED50
Mus musculus [19] = test: Anticonvulsant activity in Albino mouse assessed as protection against maximal electroshock induced seizure at ip administration; assay type: functional
Mus musculus [20] = test: Anticonvulsant activity in Albino mouse assessed as protection against Sc-PTZ induced seizure at ip administration; assay type: functional
[21] = Protective index, ratio of TD50 for toxicity in Albino mouse assessed as median neurotoxicity dose at ip administration by rotorod test to ED50 for anticonvulsant activity in Albino mouse assessed as protection against maximal electroshock induced seizure at ip administration; assay type: organism-based; conditions: in vivo, read-out: Ratio TD50/ED50
Mus musculus [22] = test: Anticonvulsant activity in Albino mouse brain assessed as increase in GABA level at 30 to 300 mg/kg,ip by spectrophotometric method; assay type: functional; conditions: dose 30-300 mg/kg
[23] = Protective index, ratio of TD50 for toxicity in Albino mouse assessed as median neurotoxicity dose at ip administration by rotorod test to ED50 for anticonvulsant activity in Albino mouse assessed as protection against Sc-PTZ induced seizure at ip administration; assay type: organism-based; conditions: in vivo, read-out: Ratio TD50/ED50
[24] = Toxicity in Swiss albino mouse assessed as median toxicity dose at ip administration; assay type: organism-based; conditions: in vivo
Rattus norvegicus [25] = test: Anticonvulsant activity against maximal electroshock induced seizure in Wistar albino rat assessed as reduction of time spent in flexion phase at 10 mg/kg,ip administrated for 30 mins by electroconvulsive therapy; assay type: functional; design: scale not given: the % may be the effect or the level left; conditions: 0.5 h
Rattus norvegicus [26] = test: Anticonvulsant activity against maximal electroshock induced seizure in Wistar albino rat assessed as reduction of time spent in extension phase at 10 mg/kg,ip administrated for 30 mins by electroconvulsive therapy; assay type: functional; design: scale not given: the % may be the effect or the level left; conditions: 0.5 h
Rattus norvegicus [27] = test: Anticonvulsant activity against maximal electroshock induced seizure in Wistar albino rat assessed as reduction of time spent in clonus phase at 10 mg/kg,ip administrated for 30 mins by electroconvulsive therapy; assay type: functional; design: scale not given: the % may be the effect or the level left; conditions: 0.5 h
Rattus norvegicus [28] = test: Anticonvulsant activity against maximal electroshock induced seizure in Wistar albino rat assessed as reduction of time spent in stupor phase at 10 mg/kg,ip administrated for 30 mins by electroconvulsive therapy; assay type: functional; design: scale not given: the % may be the effect or the level left; conditions: 0.5 h
Mus musculus [29] = test: Anticonvulsant activity in mouse assessed as inhibition of maximal electroshock induced seizure at 200 mg/kg,po administration for 120 mins; assay type: functional; conditions: 2 h

## O=C1NC(=O)C(c2ccccc2)(c2ccccc2)N1 [PHENYTOIN]
Mus musculus [1]
  ED50: > 300 mg/kg

## CN1C(=O)CN=C(c2ccccc2)c2cc(Cl)ccc21 [DIAZEPAM]
Mus musculus [2]
  Activity: 87.5%

## O=C1Nc2ccc(Br)cc2C12Nc1ccccc1-c1nc(=O)c(-c3ccccc3)nn12 (stereo not drawn)
[3]
  mortality: 30%

## NC(=O)N1c2ccccc2CC([N+](=O)[O-])c2ccccc21 (stereo not drawn)
[4]
  IC50: 2290 µM

## O=C(NC1CCCCC1)C(c1ccc(F)cc1)N1Cc2cnnn2-c2ccccc2C1=O (stereo not drawn)
Mus musculus [2]
  Activity: 87.5%

## O=C(O)CCCCCn1c(-c2ccccc2)nc(-c2ccccc2)c1-c1ccccc1
Mus musculus [5]
  Activity: 100%

## O=C1CCCN1CC(O)CN1CCN(c2ccccc2O)CC1 (stereo not drawn)
[6]
  mortality: 14.2%

## COc1ccccc1N1CCN(CCCN2CCCC2=O)CC1
[6]
  mortality: 25%

## CC(=O)O[C@H]1Cc2ccccc2N(C(N)=O)c2ccccc21 [ESLICARBAZEPINE ACETATE]
[7]
  IC50: 113 µM
Rattus norvegicus [8]
  Activity: 100%
[9]
  selectivity ratio: 76.3
Rattus norvegicus [10]
  inhibition: 73.4%
Rattus norvegicus [11]
  inhibition: 52.6%
Rattus norvegicus [12]
  ED50: 4.7 mg/kg
Rattus norvegicus [13]
  inhibition: 95.6%

## CCC1(C)CC(=O)NC1=O (stereo not drawn) [ETHOSUXIMIDE]
Mus musculus [14]
  ED50: 222 mg/kg

## COc1ccc(C2CC(c3ccc(Cl)cc3)=Nc3ccccc3N2)cc1 (stereo not drawn)
Rattus norvegicus [15]
  Time: 8.5 s
Rattus norvegicus [16]
  Activity: 52%

## CCCC(CCC)C(=O)[O-].[Na+] [VALPROATE SODIUM]
Mus musculus [5]
  Activity: 83%
Mus musculus [1]
  ED50: 149 mg/kg

## COc1ccccc1/C=C1/N=C(c2ccccc2)c2cc([N+](=O)[O-])ccc2NC1=O
Mus musculus [17]
  inhibition (INH): 69%

## C=CCC(CC(C)C)C(=O)O (racemic)
[18]
  selectivity ratio: 3.2

## COc1ccc(NC(=O)CN2C(=O)C3(Nc4ccccc4-c4nc(=O)c(C)nn43)c3ccccc32)cc1 (stereo not drawn)
[3]
  mortality: 20%

## CN(C)c1ccc(/C=N/Nc2nnc(-c3ccccc3)nc2Cc2ccc(Cl)cc2)cc1
Mus musculus [19]
  ED50: 46 mg/kg
Mus musculus [20]
  ED50: 83.9 mg/kg
[21]
  selectivity ratio: 7.82
Mus musculus [22]
  Activity: 37.3 mg
[23]
  selectivity ratio: 4.29

## CCCC(CCC)c1nnc(S)n1-c1ccccc1
[24]
  TD50: 371 mg/kg

## CC(=O)O[C@@H]1Cc2ccccc2N(C(N)=O)c2ccccc21
[7]
  IC50: 141 µM
Rattus norvegicus [8]
  Activity: 5.9%
[9]
  selectivity ratio: > 91.7
Rattus norvegicus [10]
  inhibition: 57.7%
Rattus norvegicus [11]
  inhibition: 17.9%
Rattus norvegicus [12]
  ED50: 4.7 mg/kg
Rattus norvegicus [13]
  inhibition: 73.2%

## CCCC(CCC)C(=O)N/N=C/c1ccncc1
[24]
  TD50: 346 mg/kg

## O=C1/C(=N\c2nnc(-c3cccc(Cl)c3Cl)c(/N=C3\C(=O)N(CN4CCOCC4)c4ccc(Cl)cc43)n2)c2cc(Cl)ccc2N1CN1CCOCC1
Rattus norvegicus [25]
  Activity: 30.39%
Rattus norvegicus [26]
  Activity: 48.95%
Rattus norvegicus [27]
  Activity: 40.55%
Rattus norvegicus [28]
  Activity: 34.16%

## CN(C)c1ccc(/C=N/Nc2nnc(-c3ccccc3)nc2Cc2cccc(Cl)c2)cc1
Mus musculus [19]
  ED50: 54.3 mg/kg
Mus musculus [20]
  ED50: 92 mg/kg
[21]
  selectivity ratio: 8.01
Mus musculus [22]
  Activity: 39.7 mg
[23]
  selectivity ratio: 4.73

## CCOc1ccccc1N1CCN(CCCN2CCCC2=O)CC1
[6]
  mortality: 25%

## CC1(C)O[C@@H]2O[C@@]3(COS(N)(=O)=O)OC(C)(C)OC3[C@@H]2O1 (stereo partly drawn)
Mus musculus [29]
  inhibition in vivo at 200 mg/kg: ≥ 80%
